Assay results published in PMC5623190, “Target Identification of Mycobacterium tuberculosis Phenotypic Hits Using a Concerted Chemogenomic, Biophysical, and Structural Approach” (Frontiers in Pharmacology, 2017).
≈ marks a conversion by molar mass, not a printed value. Where “and” joins values, the source holds several entries; their conditions need not be identical. Equal entries are not always repeated. Where two headings read alike, the source gives them in different places.

What was measured:
[1] = biological target: M. tuberculosis EthR (Mycobacterium tuberculosis, UniProt P9WMC1); experiment: Surface plasmon resonance assay of EthR binding to ethA promoter DNA; details: for LE (ligand efficiency): ligand efficiency for EthR inhibition
Method: The surface plasmon resonance (SPR) assay was performed on a BIAcore T100 with a protocol similar to what was previously described (Surade et al., [2014]). […] For the initial screening a single run was performed for each compound. A 2 μM EthR solution was then incubated individually with each of the compounds at 100 μM, in 2 mM MgCl2, 10 mM TRIS/HCL pH 7.5, 200 mM NaCl, 0.1 mM EDTA, and 2% DMSO and flowed over the chip at 20 μl/min for 120 s. For dissociation 150 s were given using the same flow rate. Binding was determined by subtracting the response of the control channel from the experimental channel at steady-state. Regeneration of the chip was performed between samples by flowing 0.03% SDS in running buffer for 60 s at 20 μl/min. […] Data were analyzed in Prism 5 (Graphpad software) and IC50 were calculated using a non-linear regression model. Dose response experiments were performed in triplicate.

[2] = system: Mycobacterium tuberculosis H37Rv; parameters: method as in Ballell et al., 2013; details: M. tuberculosis whole cell; ref Ballell et al., 2013; cited from earlier work
[3] = biological target: InhA (Mycobacterium tuberculosis, UniProt P9WGR1); experiment: InhA spectrophotometric enzymatic assay (NADH oxidation, 2-trans-octanoyl-CoA); format: biochemical; details: compound at 100 μM, 100 nM InhA, triplicate
Method: InhA activity was assessed by a spectrophotometric assay that followed the oxidation of NADH at λ = 340 nm in the presence of 2-trans-octanoyl-CoA. Compounds were dissolved in 100% DMSO. The enzyme reaction contains 30 mM PIPES pH 7.5, 50 mM NaCl, 1% (v/v) DMSO and 0.1 mM EDTA. InhA (100 nM) was pre-incubated for 10 min at room temperature with 0.25 mM NADH and compounds at a final concentration of 100 μM in 150 μl reaction volume. The reaction is started by the addition of 2-trans-octanoyl-CoA at a final concentration of 1.5 mM, prepared as described previously (He et al., [2006]). The reactions were followed for 20 min using a spectrophotometer plate reader (CLARIOstar—BMG LABTECH). Inhibition percentage was calculated based on the initial rates of reaction. All experiments were performed in triplicate.

[4] = inhibition of EthR binding to ethA promoter DNA
[5] = IC50, SPR dose response 0.78-100 μM, triplicate, table head prints no unit, μM
[6] = SPR dose response 0.78-100 μM, triplicate, table head prints no unit, μM, read-out: IC50

M. tuberculosis EthR, sequence (P9WMC1 whole entry, looked up): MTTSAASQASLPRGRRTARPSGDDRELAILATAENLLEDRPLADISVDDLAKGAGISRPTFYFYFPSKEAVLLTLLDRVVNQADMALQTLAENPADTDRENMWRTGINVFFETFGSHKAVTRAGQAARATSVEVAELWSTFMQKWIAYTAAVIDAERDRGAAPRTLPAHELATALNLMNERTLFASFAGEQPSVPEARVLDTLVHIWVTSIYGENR
InhA, sequence (P9WGR1 whole entry, looked up): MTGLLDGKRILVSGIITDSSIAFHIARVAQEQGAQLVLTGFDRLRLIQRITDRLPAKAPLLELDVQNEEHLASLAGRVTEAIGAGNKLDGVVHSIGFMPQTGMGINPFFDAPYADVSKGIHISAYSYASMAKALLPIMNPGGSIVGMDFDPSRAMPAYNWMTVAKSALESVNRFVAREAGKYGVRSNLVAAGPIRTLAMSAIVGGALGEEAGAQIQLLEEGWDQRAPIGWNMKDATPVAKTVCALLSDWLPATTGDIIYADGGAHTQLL

SMILES | MIC [2] | inhibition at 100 µM [1] | IC50 [1, 5] | LE (ligand efficiency) [1] | further results
N=C(Nc1nc(-c2ccccn2)cc2ccccc12)c1cccc(Cl)c1 [GSK381407a] | – | – | – | – | SPR Inhibition (%) [1, 4]: 59%
Nc1ccccc1Nc1ccc2c(c1)OCO2 [Compound 12] | 1.8 µM (≈ 0.411 µg/mL) | 67% | – | – | IC50 ([1]; SPR IC50 (µM), inhibition of EthR binding to ethA promoter DNA): > 100 µM
Fc1ccc2nc(Nc3nc(-c4ccccn4)cs3)sc2c1 [Compound 6] | 2.3 µM (≈ 0.755 µg/mL) | 97% | 22 µM | 0.30 | –
O=C(C1CCN(c2nnc(-n3cccc3)s2)CC1)N1CCC(Cc2ccccc2)CC1 [Compound 3] | 4.2 µM (≈ 1.83 µg/mL) | 100% | 3.9 µM | 0.24 | –
O=C(Cc1ccc(F)cc1)Nc1nc(-c2ccccn2)cs1 [Compound 2] | 9.3 µM (≈ 2.91 µg/mL) | 100% | 9.9 µM | 0.31 | –
c1ccc(-c2csc(Nc3nc4cc5c(cc4s3)OCO5)n2)nc1 [Compound 4] | 2.7 µM (≈ 0.957 µg/mL) | – | – | 0.28 | IC50 [1, 6]: ~13 µM and 13 µM; Inhibition (100 μM) (%) ([1]; SPR, inhibition of EthR binding to DNA, compound at 100 μM, 2 μM EthR, single run): 100%
Clc1ccc(Nc2nc(-c3ccccn3)cs2)nc1 [Compound 5] | 5.9 µM (≈ 1.7 µg/mL) | 99% | – | – | –
CCCCS(=O)(=O)Nc1ccc2cnn(C)c2c1 [GSK3011724a] | – | – | – | – | SPR Inhibition (%) [1, 4]: 28%
O=C(COc1cccc(F)c1)Nc1nc(-c2ccccn2)cs1 [Compound 7] | – | 93% | – | 0.26 | IC50 [1, 6]: 50 µM
Br.CC1(C)NC(N)=NC(=N)N1OCCCOc1ccc(Cl)cc1Cl [BRL-51091am] | – | – | – | – | SPR Inhibition (%) [1, 4]: 41%
O=C(NC1=NCCS1)c1sc2cc(F)ccc2c1Cl [Compound 1] | 8.6 µM (≈ 2.71 µg/mL) | 100% | ~12 µM and 12 µM | 0.35 | –
CSc1ccc(C(=O)Nc2nc(-c3ccccn3)cs2)cc1 [Compound 10] | 8.7 µM (≈ 2.85 µg/mL) | 74% | – | – | –
CCc1ccc(Nc2nnc(SCc3cc(C)on3)s2)cc1 [Compound 8] | 2.8 µM (≈ 0.931 µg/mL) | 92.8% | – | – | inhibition at 100 µM [3]: > 40%
